These results are taken from patent publication US20250026746A1, “ENHANCERS OF PARTICULATE GUANYLYL CYCLASE RECEPTOR A” (Mayo Foundation for Medical Education and Research, priority 2021, published 2025).

Assay [1] concerns the target T1, extracellular domain human GC-A recombinant protein (Homo sapiens, UniProt P16066).
T1 construct: extracellular domain human GC-A recombinant protein; purchased My BioSource, Inc. San Diego, CA
T1 sequence (P16066 33-473 limits assumed): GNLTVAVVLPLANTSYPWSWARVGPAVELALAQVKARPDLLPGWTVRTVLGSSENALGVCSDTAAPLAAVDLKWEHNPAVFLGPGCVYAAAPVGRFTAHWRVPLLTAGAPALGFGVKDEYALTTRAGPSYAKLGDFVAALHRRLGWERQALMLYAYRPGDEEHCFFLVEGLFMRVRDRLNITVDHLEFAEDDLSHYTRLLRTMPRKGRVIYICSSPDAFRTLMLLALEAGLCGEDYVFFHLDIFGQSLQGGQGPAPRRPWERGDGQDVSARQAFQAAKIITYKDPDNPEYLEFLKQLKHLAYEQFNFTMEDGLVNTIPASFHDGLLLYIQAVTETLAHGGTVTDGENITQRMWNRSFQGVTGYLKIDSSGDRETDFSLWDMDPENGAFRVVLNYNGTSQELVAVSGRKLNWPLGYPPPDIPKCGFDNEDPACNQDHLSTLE
Put plainly: Surface plasmon resonance binding to GC-A receptor. The conditions noted are these: acetate salt, SPR 25° C., 1:1 Langmuir model; for kon: read-out: ka association rate; for koff: read-out: kd dissociation rate. The method, then:
Surface plasmon resonance (SPR) measurements were performed at 25° C. on a BI-4500 SPR instrument (Biosensing Instrument Inc. Tempe AZ). As per the instructions by the Biosensing instrument manual, 400 mM nickel sulfate in deionized water was linked to the Ni-NTA sensor chip (Biosensing Instrument Inc. Tempe AZ. Then 30 μg/ml of extracellular domain human GC-A recombinant protein (My BioSource, Inc. San Diego, CA), containing 12 histidine residues on the C-terminus, was then immobilized to the nickel sulfate on the Ni-NTA sensor chip. After, the chip was washed with buffer (150 mM NaCl, 50 μM EDTA pH 7.4, 0).1% DMSO), then 100 μL of sequentially diluted Compound 3 acetate salt (0.125, 0.25, 0.5, 1, 2 μM), Compound 1 acetate salt (6.25, 12.5, 25, 50, 100 nM) or Compound 2 acetate salt (0.125, 0.25, 0.5, 1, 2 μM) was injected at the rate of 60 ul/min and allowed to dissociate for 60 seconds. Data was collected as sensorgrams. Binding kinetics were derived from sensorgrams using BI-Data Analysis Program (Biosensing Instrument, Tempe AZ). Affinity analysis of GC-A with Compound 3, Compound 2 and/or Compound 1 interactions were performed using a 1:1 Langmuir binding model. Two series were performed for all studies.

Assay [2] addresses T2, human pGC-A (Homo sapiens, UniProt P16066).
T2 construct: expressed in transfected cells; host or cells: HEK293
T2 sequence (P16066 33-1061): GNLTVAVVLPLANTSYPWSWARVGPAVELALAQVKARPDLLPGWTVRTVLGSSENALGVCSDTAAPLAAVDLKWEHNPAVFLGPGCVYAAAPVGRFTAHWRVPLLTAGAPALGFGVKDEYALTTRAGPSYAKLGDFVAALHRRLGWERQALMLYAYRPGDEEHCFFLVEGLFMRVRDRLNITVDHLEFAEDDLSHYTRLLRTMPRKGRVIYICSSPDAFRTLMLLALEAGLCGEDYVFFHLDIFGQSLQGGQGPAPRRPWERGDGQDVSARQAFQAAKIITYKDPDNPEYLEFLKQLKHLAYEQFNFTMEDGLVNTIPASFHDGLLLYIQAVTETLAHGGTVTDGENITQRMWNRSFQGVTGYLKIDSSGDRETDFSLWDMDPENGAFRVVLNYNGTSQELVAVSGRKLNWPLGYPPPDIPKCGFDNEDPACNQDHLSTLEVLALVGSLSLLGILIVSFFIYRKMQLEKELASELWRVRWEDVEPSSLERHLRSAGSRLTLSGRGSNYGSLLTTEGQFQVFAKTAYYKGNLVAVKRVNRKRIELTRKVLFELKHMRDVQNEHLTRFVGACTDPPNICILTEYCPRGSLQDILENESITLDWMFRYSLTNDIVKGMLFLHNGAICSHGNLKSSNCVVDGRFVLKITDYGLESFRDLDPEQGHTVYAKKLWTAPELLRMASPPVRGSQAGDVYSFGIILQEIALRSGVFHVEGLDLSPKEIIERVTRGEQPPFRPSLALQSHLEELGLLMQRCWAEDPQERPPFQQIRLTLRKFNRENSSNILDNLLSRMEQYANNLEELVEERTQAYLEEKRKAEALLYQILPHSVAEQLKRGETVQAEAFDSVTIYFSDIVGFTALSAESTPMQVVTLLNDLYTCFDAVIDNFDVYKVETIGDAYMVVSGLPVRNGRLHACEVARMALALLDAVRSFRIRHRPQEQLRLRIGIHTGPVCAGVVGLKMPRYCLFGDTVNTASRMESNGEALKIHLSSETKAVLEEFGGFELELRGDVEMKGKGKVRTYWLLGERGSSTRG
T2 sequence (P01160 124-151 partner limits assumed): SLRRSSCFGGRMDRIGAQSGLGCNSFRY
The assay can be described thus: Positive allosteric modulation of pGC-A-mediated cGMP production, HTRF competition assay (Example 1). In kind it is cell-based. The conditions noted are these: free base; for EC50: HEK 293 human pGC-A expressing cells, presence of EC30 ANP (1.3 pM), average of 3 independent experiments, read-out: pEC50 cGMP response (converted). As for the experimental part:
Test compounds at 10 mM DMSO stock concentration were added to 384 well assay plates using Tecan dispenser starting at 40 μM concentration and diluted 2-fold for 10-point concentration-response curves. Wells were backfilled with DMSO such that the final concentration of DMSO in all wells was maintained at 0.3% DMSO. Positive allosteric modulation (presence of EC30 concentration of ANP at 1.3 pM) of pGC-A-mediated activation of cGMP production was measured in human pGC-A overexpressing HEK293 cells by homogenous time-resolved florescence (HTRF) competition assay using cGMP CisBio detection kit (Cat #: 62GM2PEC). Enantiomerically pure(S)-N-(4,6-difluorobenzo[d]thiazol-2-yl)-1-(2-(dimethylamino)ethyl) piperidine-3-carboxamide and (R)-N-(4,6-difluorobenzo[d]thiazol-2-yl)-1-(2-(dimethylamino)ethyl) piperidine-3-carboxamide were individually synthesized from enantiomerically pure starting materials (R- and S-nipecotic acid).

The structures appear in SMILES notation. pKd: −log10 of the molar value.

Consider `CN(C)CCN1CCCC(C(=O)Nc2nc3c(F)cc(F)cc3s2)C1` (racemic) [Compound 3, N-(4,6-difluorobenzo[d]thiazol-2-yl)-1-(2-(dimethylamino)ethyl) piperidine-3-carboxamide], for which, in assay [1], the pKd is 6.75, the kon amounted to 113000 M⁻¹ s⁻¹ and the koff was 0.02 s⁻¹.

In the case of `CN(C)CCN1CCC[C@H](C(=O)Nc2nc3c(F)cc(F)cc3s2)C1` [Compound 1, (S)-N-(4,6-difluorobenzo[d]thiazol-2-yl)-1-(2-(dimethylamino)ethyl) piperidine-3-carboxamide], the EC50 in assay [2] was 398 nM. In addition, the “fold more potent than the R-enantiomer (compound 2)” value in assay [2] (presence of ANP) was 3.5 fold. Besides, in assay [1], the negative logarithm of the Kd (pKd) was 7.92, the kon was determined as 1.09e+06 M⁻¹ s⁻¹ and the koff was found to be 0.014 s⁻¹.

Regarding `CN(C)CCN1CCC[C@@H](C(=O)Nc2nc3c(F)cc(F)cc3s2)C1` [Compound 2, (R)-N-(4,6-difluorobenzo[d]thiazol-2-yl)-1-(2-(dimethylamino)ethyl) piperidine-3-carboxamide], the EC50 in assay [2] was 1260 nM. In addition, in assay [1], the pKd is 6.92, the kon came to 430000 M⁻¹ s⁻¹ and the koff amounted to 0.052 s⁻¹.
